{
  "source": "patent US11426397B2",
  "about": "“Piperidinyl- and piperazinyl-substituted heteroaromatic carboxamides as modulators of GPR6” (TAKEDA PHARMACEUTICAL COMPANY LIMITED, priority 2017, dated 2022)",
  "data": [
    {"molecular_target": "T1, GPR6 receptor expressed in CHO-K1 cells (Homo sapiens, UniProt P46095)", "T1 construct": "expressed in transfected cells", "T1 sequence (P46095 whole entry)": "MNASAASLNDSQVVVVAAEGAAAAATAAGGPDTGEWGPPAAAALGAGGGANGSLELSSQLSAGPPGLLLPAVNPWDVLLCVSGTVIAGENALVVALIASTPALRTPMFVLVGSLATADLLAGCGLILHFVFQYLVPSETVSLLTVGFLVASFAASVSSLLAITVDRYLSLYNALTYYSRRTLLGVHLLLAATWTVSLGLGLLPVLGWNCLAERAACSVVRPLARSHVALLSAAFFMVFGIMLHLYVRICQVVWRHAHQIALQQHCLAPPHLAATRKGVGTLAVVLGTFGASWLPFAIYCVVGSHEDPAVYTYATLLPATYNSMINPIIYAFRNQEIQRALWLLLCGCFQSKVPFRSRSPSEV", "assay": "In vitro inhibition of cAMP (EC50), cell-based HTRF cAMP assay", "settings": "inhibition of constitutive cAMP activity of GPR6 in CHO-K1 cells", "procedure,_shortened": "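Tetracycline-inducible CHO-K1 line, GPR6 expression induced 20 h with 2 μg/mL doxycycline. Compounds incubated 45 min at 37 °C in Ringer's buffer (pH 7.4) with 0.5% fatty acid free BSA and 300 μM IBMX. Constitutive cAMP read by Lance HTRF; EC50 from four-parameter logistic fit.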", "values": [
      {"smiles": "Cn1cccc(C(=O)Nc2cc(C#N)ccc2N2CCC([C@H](F)c3ccc(F)cc3F)CC2)c1=O", "note": "[Example 84, (S)—N-(5-cyano-2-(4-((2,4-difluorophenyl)fluoromethyl)piperidin-1-yl)phenyl)-1-methyl-2-oxo-1,2-dihydropyridine-3-carboxamide]", "pEC50, in vitro inhibition of cAMP": 6.6},
      {"smiles": "Cn1cccc(C(=O)Nc2cc(C#N)ccc2N2CCC([C@@H](F)c3ccc(F)cc3F)CC2)c1=O", "note": "[Example 85, (R)—N-(5-cyano-2-(4-((2,4-difluorophenyl)fluoromethyl)piperidin-1-yl)phenyl)-1-methyl-2-oxo-1,2-dihydropyridine-3-carboxamide]", "pEC50, in vitro inhibition of cAMP": 7.2},
      {"smiles": "Cn1cccc(C(=O)Nc2cc(C#N)ccc2N2CCC(C(F)(F)c3ccc(F)cc3F)CC2)c1=O", "note": "[Example 86, N-(5-cyano-2-(4-((2,4-difluorophenyl)difluoromethyl)piperidin-1-yl)phenyl)-1-methyl-2-oxo-1,2-dihydropyridine-3-carboxamide]", "pEC50, in vitro inhibition of cAMP": 6.8},
      {"smiles": "Cn1cccc(C(=O)Nc2cc(C#N)ccc2N2CCC(C(F)c3cc(F)ccc3F)CC2)c1=O", "note": "(centres unmarked) [Example 87]", "pEC50, in vitro inhibition of cAMP": 7.2},
      {"smiles": "Cn1cccc(C(=O)Nc2cc(C#N)ccc2N2CCC(C(F)(F)c3cc(F)ccc3F)CC2)c1=O", "note": "[Example 88, N-(5-cyano-2-(4-((2,5-difluorophenyl)difluoromethyl)piperidin-1-yl)phenyl)-1-methyl-2-oxo-1,2-dihydropyridine-3-carboxamide]", "pEC50, in vitro inhibition of cAMP": 6.4},
      {"smiles": "Cn1cccc(C(=O)Nc2cc(C#N)ccc2N2CCC(C(F)(F)c3cc(Cl)ccc3F)CC2)c1=O", "note": "[Example 89, N-(2-(4-((5-chloro-2-fluorophenyl)difluoromethyl)piperidin-1-yl)-5-cyanophenyl)-1-methyl-2-oxo-1,2-dihydropyridine-3-carboxamide]", "pEC50, in vitro inhibition of cAMP": 6.3},
      {"smiles": "COc1ccc(CC2CCN(c3ccc(C#N)cc3NC(=O)c3cccn(C)c3=O)CC2)c(F)c1", "note": "[Example 90, N-(5-cyano-2-(4-(2-fluoro-4-methoxybenzyl)piperidin-1-yl)phenyl)-1-methyl-2-oxo-1,2-dihydropyridine-3-carboxamide]", "pEC50, in vitro inhibition of cAMP": 7.2},
      {"smiles": "COc1ncccc1C(=O)Nc1cc(C#N)ccc1N1CCN(Cc2ccc(F)cc2)CC1", "note": "[Example 91, N-(5-cyano-2-(4-(4-fluorobenzyl)piperazin-1-yl)phenyl)-2-methoxynicotinamide]", "pEC50, in vitro inhibition of cAMP": 7.1},
      {"smiles": "COc1ccncc1C(=O)Nc1ccc(C#N)cc1N1CCC(Oc2ccc(F)cc2F)CC1", "note": "[Example 92, N-(4-cyano-2-(4-(2,4-difluorophenoxy)piperidin-1-yl)phenyl)-4-methoxynicotinamide]", "pEC50, in vitro inhibition of cAMP": 7.3},
      {"smiles": "COc1ncccc1C(=O)Nc1cc(C#N)ccc1N1CCN(C(=O)c2ccc(F)cc2F)CC1", "note": "[Example 93, N-(5-cyano-2-(4-(2,4-difluorobenzoyl)piperazin-1-yl)phenyl)-2-methoxynicotinamide]", "pEC50, in vitro inhibition of cAMP": 6.3},
      {"smiles": "COc1nccnc1C(=O)Nc1cc(C#N)ccc1N1CCC(Oc2ccc(F)cc2F)CC1", "note": "[Example 94, N-(5-cyano-2-(4-(2,4-difluorophenoxy)piperidin-1-yl)phenyl)-3-methoxypyrazine-2-carboxamide]", "pEC50, in vitro inhibition of cAMP": "<5.7"},
      {"smiles": "COc1ncccc1C(=O)Nc1cc(S(C)(=O)=O)ccc1N1CCN(C(=O)c2ccc(F)cc2C)CC1", "note": "[Example 95, N-(2-(4-(4-fluoro-2-methylbenzoyl)piperazin-1-yl)-5-(methylsulfonyl)phenyl)-2-methoxynicotinamide]", "pEC50, in vitro inhibition of cAMP": 6.2},
      {"smiles": "COc1ncccc1C(=O)Nc1cc(C#N)ccc1N1CCC(C(OC)c2ccc(F)cc2)CC1", "note": "(centres unmarked) [Example 96, N-(5-cyano-2-(4-((4-fluorophenyl)(methoxy)methyl)piperidin-1-yl)phenyl)-2-methoxynicotinamide]", "pEC50, in vitro inhibition of cAMP": 6.5},
      {"smiles": "COc1nn(C)cc1C(=O)Nc1cc(C#N)ccc1N1CCC(S(=O)(=O)c2cccc(F)c2)CC1", "note": "[Example 97, N-(5-cyano-2-(4-((3-fluorphenyl)sulfonyl)piperidin-1-yl)phenyl)-3-methoxy-1-methyl-1H-pyrazole-4-carboxamide]", "pEC50, in vitro inhibition of cAMP": 6.4},
      {"smiles": "COc1cccc(S(=O)(=O)C2CCN(c3ccc(C#N)cc3NC(=O)c3cn(C)nc3OC)CC2)c1", "note": "[Example 98, N-(5-cyano-2-(4-((3-methoxyphenyl)sulfonyl)piperidin-1-yl)phenyl)-3-methoxy-1-methyl-1H-pyrazole-4-carboxamide]", "pEC50, in vitro inhibition of cAMP": 6.4},
      {"smiles": "COc1nn(C)cc1C(=O)Nc1cnc(C)cc1N1CCC(S(=O)(=O)c2ccc(F)cc2F)CC1", "note": "[Example 99, N-(4-(4-((2,4-difluorophenyl)sulfonyl)piperidin-1-yl)-6-methylpyridin-3-yl)-3-methoxy-1-methyl-1H-pyrazole-4-carboxamide]", "pEC50, in vitro inhibition of cAMP": 6.1},
      {"smiles": "COc1ncc(F)cc1C(=O)Nc1ccc(C)nc1N1CCN(Cc2ccc(F)cc2)CC1", "note": "[Example 100, 5-fluoro-N-(2-(4-(4-fluorobenzyl)piperazin-1-yl)-6-methylpyridin-3-yl)-2-methoxynicotinamide]", "pEC50, in vitro inhibition of cAMP": 6.8},
      {"smiles": "Cc1ccc(NC(=O)c2cc(F)cnc2O)c(N2CCN(Cc3ccc(F)cc3)CC2)n1", "note": "[Example 101, 5-fluoro-N-(2-(4-(4-fluorobenzyl)piperazin-1-yl)-6-methylpyridin-3-yl)-2-hydroxynicotinamide]", "pEC50, in vitro inhibition of cAMP": 5.9},
      {"smiles": "COc1nn(C)cc1C(=O)Nc1cc(C)cnc1N1CCN(Cc2ccc(C#N)c(F)c2)CC1", "note": "[Example 102, N-(2-(4-(4-cyano-3-fluorobenzyl)piperazin-1-yl)-5-methylpyridin-3-yl)-3-methoxy-1-methyl-1H-pyrazole-4-carboxamide]", "pEC50, in vitro inhibition of cAMP": 6.1},
      {"smiles": "COc1c(C(=O)Nc2ccc(C)nc2N2CCN(Cc3ccc(F)cc3)CC2)cnn1C", "note": "[Example 103, N-(2-(4-(4-fluorobenzyl)piperazin-1-yl)-6-methylpyridin-3-yl)-5-methoxy-1-methyl-1H-pyrazole-4-carboxamide]", "pEC50, in vitro inhibition of cAMP": 6.5},
      {"smiles": "Cc1ccc(NC(=O)c2cnn(C)c2O)c(N2CCN(Cc3ccc(F)cc3)CC2)n1", "note": "[Example 104]", "pEC50, in vitro inhibition of cAMP": "<5.7"},
      {"smiles": "Cc1nc(C(=O)Nc2cc(C#N)ccc2N2CCC(Oc3ccc(F)cc3F)CC2)cs1", "note": "[Example 105]", "pEC50, in vitro inhibition of cAMP": 7.0},
      {"smiles": "N#Cc1ccc(N2CCC(Oc3ccc(F)cc3F)CC2)c(NC(=O)c2ccc(F)cn2)c1", "note": "[Example 106, N-(5-cyano-2-(4-(2,4-difluorophenoxy)piperidin-1-yl)phenyl)-5-fluoropicolinamide]", "pEC50, in vitro inhibition of cAMP": 6.5},
      {"smiles": "N#Cc1ccc(N2CCC(Oc3ccc(F)cc3F)CC2)c(NC(=O)c2cc3n(n2)CCC3)c1", "note": "[Example 107, N-(5-cyano-2-(4-(2,4-difluorophenoxy)piperidin-1-yl)phenyl)-5,6-dihydro-4H-pyrrolo[1,2-b]pyrazole-2-carboxamide]", "pEC50, in vitro inhibition of cAMP": 6.6},
      {"smiles": "N#Cc1ccc(N2CCC(Oc3ccc(F)cc3F)CC2)c(NC(=O)c2ncccc2F)c1", "note": "[Example 108, N-(5-cyano-2-(4-(2,4-difluorophenoxy)piperidin-1-yl)phenyl)-3-fluoropicolinamide]", "pEC50, in vitro inhibition of cAMP": 7.0},
      {"smiles": "COc1ccnc(C(=O)Nc2cc(C#N)ccc2N2CCC(Oc3ccc(F)cc3F)CC2)c1", "note": "[Example 109, N-(5-cyano-2-(4-(2,4-difluorophenoxy)piperidin-1-yl)phenyl)-4-methoxypicolinamide]", "pEC50, in vitro inhibition of cAMP": 6.7},
      {"smiles": "Cc1nc(C(=O)Nc2cc(C#N)ccc2N2CCC(Oc3ccc(F)cc3F)CC2)c(C)o1", "note": "[Example 110, N-(5-cyano-2-(4-(2,4-difluorophenoxy)piperidin-1-yl)phenyl)-2,5-dimethyloxazole-4-carboxamide]", "pEC50, in vitro inhibition of cAMP": 6.3},
      {"smiles": "N#Cc1ccc(N2CCC(Oc3ccc(F)cc3F)CC2)c(NC(=O)c2ncoc2C2CC2)c1", "note": "[Example 111]", "pEC50, in vitro inhibition of cAMP": 5.5},
      {"smiles": "N#Cc1ccc(N2CCC(Oc3ccc(F)cc3F)CC2)c(NC(=O)c2cscn2)c1", "note": "[Example 112, N-(5-cyano-2-(4-(2,4-difluorophenoxy)piperidin-1-yl)phenyl)thiazole-4-carboxamide]", "pEC50, in vitro inhibition of cAMP": 6.4},
      {"smiles": "Cc1cc(C(=O)Nc2cc(C#N)ccc2N2CCC(Oc3ccc(F)cc3F)CC2)nn1C", "note": "[Example 113, N-(5-cyano-2-(4-(2,4-difluorophenoxy)piperidin-1-yl)phenyl)-1,5-dimethyl-1H-pyrazole-3-carboxamide]", "pEC50, in vitro inhibition of cAMP": 6.9},
      {"smiles": "Cc1cnc(C(=O)Nc2cc(C#N)ccc2N2CCC(Oc3ccc(F)cc3F)CC2)c(C)n1", "note": "[Example 114, N-(5-cyano-2-(4-(2,4-difluorophenoxy)piperidin-1-yl)phenyl)-3,5-dimethylpyrazine-2-carboxamide]", "pEC50, in vitro inhibition of cAMP": 6.1},
      {"smiles": "Cc1nccnc1C(=O)Nc1cc(C#N)ccc1N1CCC(Oc2ccc(F)cc2F)CC1", "note": "[Example 115, N-(5-cyano-2-(4-(2,4-difluorophenoxy)piperidin-1-yl)phenyl)-3-methylpyrazine-2-carboxamide]", "pEC50, in vitro inhibition of cAMP": 6.6},
      {"smiles": "N#Cc1ccc(N2CCC(Oc3ccc(F)cc3F)CC2)c(NC(=O)c2csnn2)c1", "note": "[Example 116, N-(5-cyano-2-(4-(2,4-difluorophenoxy)piperidin-1-yl)phenyl)-1,2,3-thiadiazole-4-carboxamide]", "pEC50, in vitro inhibition of cAMP": 5.9},
      {"smiles": "N#Cc1ccc(N2CCC(Oc3ccc(F)cc3F)CC2)c(NC(=O)c2ccon2)c1", "note": "[Example 117, N-(5-cyano-2-(4-(2,4-difluorophenoxy)piperidin-1-yl)phenyl)isoxazole-3-carboxamide]", "pEC50, in vitro inhibition of cAMP": 6.3},
      {"smiles": "CCc1cc(C(=O)Nc2cc(C#N)ccc2N2CCC(Oc3ccc(F)cc3F)CC2)no1", "note": "[Example 118, N-(5-cyano-2-(4-(2,4-difluorophenoxy)piperidin-1-yl)phenyl)-5-ethylisoxazole-3-carboxamide]", "pEC50, in vitro inhibition of cAMP": 6.4}
    ]}
  ]
}
